The target of series [1] is T1, human kiss1 receptor (GPR54) (Homo sapiens, UniProt Q969F8).
T1 construct: host or cells: NFAT-bla CHO-K1 cells (Chinese hamster ovary), purchased recombinant cell line
Kind of series: Kiss1 receptor (GPR54) binding activity of agonists, FRET detection in NFAT-bla CHO-K1 cells. The format is cell-based. The note with it: GPR54; measured according to the method of effect Embodiment 1; preliminary data; read-out: Preliminary measurement data (GPR54) EC50.
Method: Effect Embodiment 1 Determination of Kiss1 Receptor (GPR54) Binding Activity of Kiss1 Receptor (GPR54) Agonist
The binding activity test of each compound from the above the embodiments with kiss1 receptor (GPR54) was performed by fluorescence energy resonance transfer (FRET) detection technology to detect EC50 values of polypeptides and peptide analogs. The cells used in this experiment were NFAT-bla CHO-K1 cells (k1720, invitrogen, thermosher) that express human kiss1 receptor (GPR54). The specific operations were as follows:
Day 1: Seeding Cells in Plate
1. Microscope (CKX41, OLYMPUS), object lens×4 times, ocular lens×10 times. The cells were ensured in a good condition.
2. Digesting the cells, adding 3 ml of 0.05% pancreatin into a culture dish; cells were placed in a 37° C., 5% CO2 incubator for 2 minutes (Thermo Fisher). After the cells became round under the microscope, 7 ml of culture medium was added. The formula of culture medium was as follows: DMEM 90%, dialzedfbS10, NEAA 0.1 mM, HEPES 25 mM, Penicillin 100 U/ml, Streptomycin 100 μm/ml, pH7.3. After blowing and stirring, it was transferred to 15 mL centrifuge tube (430790, Corning). Centrifuge at 1000 rpm for 5 min (5810R, Eppendorf) and the supernatant was discard.
3. Adding 7 mL of culture medium (DMEM+0.1% BSA), it was pipetting into single cell suspension, after counting with Bio-RAD counter, the cell density was adjusted to 312,500 cells/ml.
4. Cells were inoculated into 384 well plates at 32 μL per well, and the cell number was controlled at 10000 cells/well. 32 μl of culture medium was added into the blank control.
Day 2: Dosing and Data Analysis
1) The compound to be tested was prepared into 50 mM working solution with DMSO.
2) 40 μl of the working solution of the compound to be tested was added into column 2 of row A-H of U-shaped 96-well plate (3797, comings), and 60 μl of DMSO was added into column 3-11. 20 μl of compound solution was sucked from the second column to the third column with a multichannel pipette blowing and stirring evenly; 20 μl of compound solution was absorbed from the third column with a multichannel pipette, then added into the fourth column, blowed and stirred to mix well; the compound was serially diluted 4-fold to a total of 10 concentrations. Column 1 and column 12 of 96-well plates were supplemented with 40 μl DMSO.
2. Intermediate Plate Configuration
1) AU-shaped 96-well plate was used, 199 μL of culture medium (DMEM+0.1% BSA) was added to each well, 1 μL of diluted compound (or DMSO) was sucked from 1000× compound plate and added into the 96-well plate at the corresponding position, blowed and stirred to mix well.
2) Homemade positive compounds and compounds to be tested were added. The cell culture plate was took out from the incubator and cells state was observed under microscope. Diluted compound in the intermediate plate or DMSO was added into the cell, 8 μl per well.
3) Cells were cultured in 37° C. and 5% CO2 for 4 hours.
3. The Substrate was Added to Detect the Binding of the Drug to the Receptor
1) 1 μmol/L CCF-4AM solution and buffer solution B, C, D were equilibrated to room temperature. LiveBLAZER™-FRET B/G Loading Kit (K1095, thermo Fisher) containing CCF-4AM and solution B, solution C, solution D were also available from Invitrogen (K1157, thermo Fisher).
2) 6× loading solution was prepared: 6 μl of CCF-4AM dissolved solution A, 60 μl of solution b, 904 μl of solution c, and 30 μl of solution D were pipetted into EP tube, blowed and stirred to mix well.
3) 8 μl of the above-mentioned liquid was sucked with a multichannel pipette, added into a 96-well plate, and incubated for 2 hours at room temperature.
4) The PerkinElmer detector was used to detect the luminous signals of each hole. FI mode, λex=409 nm, λem1=460 nm, λem2=530 nm.
4. Data Processing Using Graphpad Prism 5 (GraphPad Software. Inc)
Effective rate %=(Signal−Min)/(Max−Min)×100%.

Series [2] can be described thus: Plasma stability, LC-MS/MS. It counts as in vitro ADME. Particulars: rat plasma, 37° C., final concentration 500 ng/ml, time points 0 minutes, 1, 2 and 4 hours; calculated half-life; read-out: Rat plasma (T½ (h)) (converted). The protocol: Effect Embodiment 2 Experimental Data on Plasma Stability of Some Compounds
1. Preparation of 50 mM Phosphate Buffer:
The 5.750 g Na2HPO4, 1.141 g NaH2PO4. and 4.095 g NaCl (Shanghai Titan) weighed was dissolved in 1000 mL ultrapure water and the pH was adjusted to 7.4 to give 50 mM phosphate buffer containing 70 mM NaCl. The prepared phosphoric acid buffer solution was stored in the refrigerator at 4° C. and was valid for one week.
2. Preparation of compound stock solution:
1). 5 mg/mL of test compound: 5 mg of compound was weighted and dissolved in 1 mL of DMSO.
2). 20 mM control: 2.728 mg of Fuka was dissolved in 0.5 mL of DMSO. 3.878 mg of benzalkonium bromide was dissolved in 0.5 mL of DMSO (Amresco).
3. Preparation of experimental plasma:
The frozen plasma (human: Shanghai wise chemistry; Rats and mice: Shanghai Sciple-Bikai; Dogs and monkeys: Suzhou Xishan Zhongke) were taken out of the −80° C. refrigerator, immediately placed in a 37° C. water bath, slightly shaken to melt it, then the thawed plasma was poured into a centrifuge tube, centrifuged at 3000 rpm for 8 min, and the supernatant was taken for experiments. The pH value of plasma was detected by a pH Meter & Sensor (METTLER TOLEDO). Only plasma with a pH value between 7.4 and 8 was used in the experiment. The plasma was placed on an ice bath for later use.
4. Preparation of administration solution:
1). 125 µg/ml test compound solution: 5 μL of 5 mg/mL test compound (see step 2) was added into 195 μL DMSO; 500 μM control solution: 20 mM control stock solution (see step 2) was added to 195 μL DMSO.
2). 0.5% BSA phosphate buffer solution: 0.05 g BSA was added to 10 mL phosphate buffer solution (see step 1);
3). 5 µg/ml of test compound administration solution: 40 μL of 125 μg/mL of test compound solution was added into 960 μL 0.5% BSA phosphate buffer solution, stirred and mixed evenly, and the administration solution was preheated in a 37° C. water bath for 5 minutes.
20 μM reference substance administration solution: 40 μL of 500 μM reference substance administration solution was added into 960 μL 0.5% BSA phosphate buffer solution, stirred and mixed evenly, and the administration solution was preheated in a 37° C. water bath for 5 minutes.
5. 10 μL of 5 μg/mL of the test compound and 20 μM of the control substance administration solution were respectively added to the wells set at different time points (0 minutes, 1 hour, 2 hours and 4 hours) on the 96-well plate, and the number of duplicate samples was 3.
6. 500 μL of ACN (IS) containing 5% FA was added to the well set at 0 minute hour, then 90 μL of plasma was added, after mixing, sealing film was pasted and placed at 4° C. (number of duplicate samples was 3).
7. 90 μL of plasma was added to the wells with set time points of 1 hour, 2 hours and 4 hours respectively, the number of duplicate samples was 3, and timing was started (the final concentration of the test compound was 500 ng/ml; The control was 2 μM).
9. All samples (0 minutes, 1 hour, 2 hours and 4 hours) at different time points on a 96-well plate were shaken for 10 minutes at 600 rpm/min on an oscillator (MTS 2/4, IKA), and then the samples were centrifuged for 15 minutes at 5594×g in a centrifuge (Multifuge×3R, thermo Fisher).
10. 150 μL of supernatant was taken from the centrifuged sample and sent to LC-MS/MS for analysis (conventional polypeptide LC-MS/MS analysis method).

A word on the EC50: it is the concentration at which the effect is half-maximal.

Non-standard residues stand in square brackets, D forms with d. Residues, ends and D or L forms follow the SMILES beside them. *: point of attachment. X5 = CCCCCCCCCCCC(=O)NCCOCCOCCOCCOCCOCCSSCCCC(=O)*; PEG8 = NCCOCCOCCOCCOCCOCCOCCOCCOCCC(=O)O; Arg(Me) = CNC(=N)NCCC[C@H](N)C(=O)O; Palmitoyl = CCCCCCCCCCCCCCCC(=O)*; Hyp = O=C(O)[C@@H]1C[C@@H](O)CN1; AllylGly = C=CC[C@H](N)C(=O)O; PEG4 = NCCOCCOCCOCCOCCC(=O)O; Lauroyl = CCCCCCCCCCCC(=O)*; azaGly = NNC(=O)O

T1 sequence (Q969F8 whole entry): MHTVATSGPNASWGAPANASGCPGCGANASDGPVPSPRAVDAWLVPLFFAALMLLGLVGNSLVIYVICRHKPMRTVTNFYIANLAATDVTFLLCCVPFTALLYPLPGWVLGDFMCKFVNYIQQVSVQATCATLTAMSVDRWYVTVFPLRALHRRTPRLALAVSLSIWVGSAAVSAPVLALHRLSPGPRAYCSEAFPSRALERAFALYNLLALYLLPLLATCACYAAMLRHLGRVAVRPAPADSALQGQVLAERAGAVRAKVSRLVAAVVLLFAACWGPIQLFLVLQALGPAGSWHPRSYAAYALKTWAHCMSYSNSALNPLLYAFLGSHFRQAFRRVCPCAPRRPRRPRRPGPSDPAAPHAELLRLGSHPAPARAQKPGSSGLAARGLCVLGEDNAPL

For the molecule `CCCCCCCCCCCC(=O)NCCOCCOCCOCCOCCC(=O)NCCOCCOCCOCCOCCC(=O)N[C@H](Cc1ccc(O)cc1)C(=O)N1C[C@H](O)C[C@H]1C(=O)N[C@@H](CC(N)=O)C(=O)N[C@H](C(=O)N[C@@H](Cc1ccccc1)C(=O)NNC(=O)N[C@@H](CC(C)C)C(=O)N[C@@H](CCCNC(=N)NC)C(=O)N[C@@H](Cc1c[nH]c2ccccc12)C(N)=O)[C@@H](C)O` [YA-296, Dodecanoyl-PEG4-PEG4-D-Tyr-Hyp-Asn-Thr-Phe-azaGly-Leu-Arg(Me)-Trp-NH2] ({Lauroyl-PEG4-PEG4}-[dY][Hyp]NTF[azaGly]L[Arg(Me)]W-NH2), in series [1], the EC50 was 11 pM. Besides, in series [2], the half-life at 500 ng/ml is 2.73 h.
Take `CCCCCCCCCCCCCCCC(=O)NCCOCCOCCOCCOCCOCCOCCOCCOCCC(=O)N[C@H](Cc1ccc(O)cc1)C(=O)N1C[C@H](O)C[C@H]1C(=O)N[C@@H](CC(N)=O)C(=O)N[C@H](C(=O)N[C@@H](Cc1ccccc1)C(=O)NNC(=O)N[C@@H](CC(C)C)C(=O)N[C@@H](CCCNC(=N)NC)C(=O)N[C@@H](Cc1c[nH]c2ccccc12)C(N)=O)[C@@H](C)O` [YA-298, Palm-PEG8-D-Tyr-Hyp-Asn-Thr-Phe-azaGly-Leu-Arg(Me)-Trp-NH2] ({Palmitoyl-PEG8}-[dY][Hyp]NTF[azaGly]L[Arg(Me)]W-NH2): the EC50 in series [1] came out at 16 pM. Also, the half-life at 500 ng/ml in series [2] is 12.7 h.
As to `CCCCCCCCCCCC(=O)NCCOCCOCCOCCOCCOCCSSCCCC(=O)N[C@H](Cc1ccc(O)cc1)C(=O)N1C[C@H](O)C[C@H]1C(=O)N[C@@H](CC(N)=O)C(=O)N[C@H](C(=O)N[C@@H](Cc1ccccc1)C(=O)NNC(=O)N[C@@H](CC(C)C)C(=O)N[C@@H](CCCNC(=N)NC)C(=O)N[C@@H](Cc1c[nH]c2ccccc12)C(N)=O)[C@@H](C)O` [YA-324, Dodecanoyl-(NH-PEG5-CH2CH2S)-(4-thiol-butanoyl)-(D-Tyr)-Hyp-Asn-Thr-Phe-azaG-Leu-Arg(Me)-Trp-NH2] (X5-[dY][Hyp]NTF[azaGly]L[Arg(Me)]W-NH2), the EC50 in series [1] amounted to 7 pM. In addition, the half-life at 500 ng/ml in series [2] is 0.29 h.
`C=CC[C@H](NC(=O)[C@H](Cc1ccccc1)NC(=O)[C@@H](NC(=O)[C@H](CC(N)=O)NC(=O)[C@@H]1C[C@@H](O)CN1C(=O)[C@@H](Cc1ccc(O)cc1)NC(=O)CCOCCOCCOCCOCCOCCOCCOCCOCCNC(=O)CCCCCCCCCCCCCCC)[C@@H](C)O)C(=O)N[C@@H](CC(C)C)C(=O)N[C@@H](CCCNC(=N)NC)C(=O)N[C@@H](Cc1c[nH]c2ccccc12)C(N)=O` [YA-360, Palm-PEG8-Gly-Gly-(D-Tyr)-Hyp-Asn-Thr-Phe-A1g-Leu-Arg(Me)-Trp-NH2] ({Palmitoyl-PEG8}-[dY][Hyp]NTF[AllylGly]L[Arg(Me)]W-NH2): in series [1], the EC50 was determined as 6 pM. Further, the half-life at 500 ng/ml in series [2] is 79.9 h.

Values taken from patent US11427615B2, “Peptide compound and application thereof, and composition containing peptide compound” (XDCEXPLORER (SHANGHAI) CO., LTD., priority 2017, dated 2022).
